The record followed here is patent US20240082414A1, “HUMAN TUMOR NECROSIS FACTOR ALPHA ANTIBODY GLUCOCORTICOID CONJUGATES” (Eli Lilly and Company, priority 2022, published 2024).

For this experiment, the system named is anti-drug antibodies against adalimumab. The experiment in a line: ACE-Bridge binding to cynomolgus monkey anti-drug antibodies against adalimumab. The conditions noted are these: FIG. 3; AP-HIMS from monkeys hyperimmunized with adalimumab; bridging with the labeled test antibody. The procedure:
Example 5a. […] The anti-adalimumab antibodies were detected using a titration of AP-HIMS in an ACE-Bridge assay. The assay was developed following the FDA Guidance on Immunogenicity testing. […] The following day, plates were washed three times with TBST and the captured anti-adalimumab antibodies were acid eluted using 65 μL/well of 300 mM acetic acid (Fisher Scientific, A38-500) for 5 min at room temperature. […] Next, 50 μL of the acid eluted samples were added to the polypropylene plate containing the mixture in neutralizing buffer and the ADA and were allowed to bridge to the labeled antibodies for 1 h at room temperature. MSD Gold 96-well streptavidin plates (Mesoscale, L15SA-1) were washed and blocked with TBS+1% BSA for 1 h at room temperature, then washed, and 80 μL of bridged samples were added to the plate for 1 h. The plates were washed three times with TBST, and 150 μL/well of 2×MSD Buffer (Mesoscale, R92TC-2) was added to the plates. Plates were read on an MSD SQ120 reader to provide the Tier 1 signal expressed as electro chemiluminescent units (ECLU).
The resulting ECLU signal was then plotted as a function of the concentration of AP-HIMS tested.

Consider “adalimumab: other anti-TNFα therapeutic antibody [reference compound]”, for which the “maximum ECLU signal” value came to 40000 ECLU.
